Experimental data taken from patent publication US12144886B2, “Perineural administration of resiniferatoxin for treatment of maladaptive pain” (Sorrento Therapeutics, Inc., priority 2018, dated 2024).

System: declawed cat with maladaptive pain
Assay: Feline Musculoskeletal Pain Index (FMPI) in a declawed cat after perineural RTX nerve blocks
Type: in vivo
Set-up: key to FMPI Q5 (jumping down) / FMPI Q6 (climbing upstairs) / FMPI Q7 (going down stairs) / FMPI Q8 (playing with/chasing toys) / FMPI Q9 (playing and interacting with other pets) / FMPI Q10 (getting up from a resting position) / FMPI Q11 (lying or sitting down) / FMPI Q12 (stretching) / FMPI Q13 (grooming) / FMPI Q14 (interacting with the owner) / FMPI Q15 (being touched or handled) / FMPI Q16 (eating) / FMPI Q17 (using the litter box) / FMPI Q1 (walking) / FMPI Q2 (running) / FMPI Q3 (jumping up) / FMPI Q4 (jumping up to kitchen counter height): 4 = normal; 3 = near normal; 2 = Moderately worse than normal; 1 = Barely, or with great effort; 0 = not at all
Conditions: one cat, 2.5 μg/forelimb perineural
Description: Each dose of 5 μg/cat or 2.5 μg/forelimb will be formulated in 1 cc insulin syringes by diluting 0.1 mL: (2.5 μg) of RTX in 0.9 mL sterile saline for injection immediately before use. For treatment, a total of 1.0 mL (2.5 μg) will be injected as nerve blocks, distributed equally (0.25 ml per injection site) over 4 injection sites for each forelimb.
Four point nerve blocks are performed by injection of 0.25 mL RTX each into the 1) superficial branches of the radial nerve, 2) dorsal branch of the ulnar nerve, 3) median nerve and superficial branch of the palmar branch of the ulnar nerve, and 4) deep branch of the palmar branch of the ulnar nerve. The nerve blocks for each forelimb are performed following a published technique for locoregional block of the manus in cats (Enomoto et al. (2016) J. Feline Med. Surg. 18:838-845). To block the superficial branches of the radial nerve (RSbr nn), the limb is positioned with the dorsal aspect facing upwards and the carpus in 180° of extension. A 25 G×⅝-inch needle is inserted subcutaneously (SC) from a point at the center of the limb at the level of the antebrachiocarpal joint. The needle is advanced approximately 10 mm SC at a 10-20° angle to the long axis of the limb with the bevel facing up. Once the tip of the needle is 3-5 mm from the confluence point of the accessory cephalic and cephalic veins, the injection is made (0.25 mL). To block the dorsal branch of the ulnar nerve (UDbr n), the limb is positioned with the lateral aspect facing upwards. A point is located lateral to and at the same level as the accessory carpal bone (ACb), positioned between the ACb and the styloid process of the ulna (SpU). A 25 G×⅝-inch needle is inserted SC distal to proximal, so the tip lies at the midpoint of the groove formed between ACb and the SpU, and then the injection is made (0.25 mL). To block the median nerve (M n) and superficial branch of the palmar branch of the ulnar nerve (UPbrS n), the limb is positioned with the palmar aspect facing upwards. A 25 G×⅝-inch needle is inserted SC at the distal border of the carpal pad and approximately 5 mm lateral to it, perpendicular to the long axis of the metacarpus, with the bevel facing up. The needle is inserted SC until the point is located two-thirds of the distance from the lateral aspect of the limb to the medial aspect. Two-thirds of the injectate volume is deposited at this point and the remaining volume is injected while the needle is withdrawn (0.25 mL). Gentle massage is applied to the injected volume under the skin for 5 seconds. To block the deep branch of the palmar branch of the ulnar nerve (UPbrDp n), the limb is positioned with the palmar aspect facing upwards. A 25 G×⅝-inch needle is inserted almost perpendicular to the ACb in a mediolateral direction such that the needle contacts the medial palmar aspect of the midpoint of the ACb with the bevel facing up. The needle is then redirected dorsally and advanced on the medial side of the ACb 2-3 mm until it penetrates the flexor retinaculum, and then the injection is made (0.25 mL).
The effectiveness of the injection with RTX is assessed at days 3, 7, and 14 using owner videography for qualitative assessment (jumping, manipulation of the limb), and cats will also be evaluated using the Feline Musculoskeletal Pain Index (FMPI) and the Client Specific Outcome Measure (CSOM).
For FMPI, cats are scored for 17 attributes designated Q1-Q17 using a scale of 0-4, where 0=not at all, 1=barely or with great effort, 2=moderately worse than normal, 3=near normal, and 4=normal. The total FMPI score is the sum of scores for each question. Higher totals indicate less impairment with a possible range of (0-68). For analysis, total score or percent possible can be used. […]

C=C(C)[C@]12C[C@@H](C)[C@@]34O[C@](Cc5ccccc5)(O[C@@H]1[C@@H]3C=C(COC(=O)Cc1ccc(O)c(OC)c1)C[C@]1(O)C(=O)C(C)=C[C@@H]41)O2 [RTX, resiniferatoxin]
2: FMPI Q1 (walking) (Day 0 (baseline)) | FMPI Q5 (jumping down) (Day 0 (baseline)) | FMPI Q9 (playing and interacting with other pets) (Day 0 (baseline)) | FMPI Q15 (being touched or handled) (Day 0 (baseline)) | FMPI Q2 (running) (Day 3) | FMPI Q4 (jumping up to kitchen counter height) (Day 3) | FMPI Q15 (being touched or handled) (Day 3) | FMPI Q9 (playing and interacting with other pets) (Day 7) | FMPI Q1 (walking) (Screening (baseline)) | FMPI Q5 (jumping down) (Screening (baseline)) | FMPI Q9 (playing and interacting with other pets) (Screening (baseline)) | FMPI Q15 (being touched or handled) (Screening (baseline))
3: FMPI Q3 (jumping up) (Day 0 (baseline)) | FMPI Q8 (playing with/chasing toys) (Day 0 (baseline)) | FMPI Q12 (stretching) (Day 0 (baseline)) | FMPI Q13 (grooming) (Day 0 (baseline)) | FMPI Q14 (interacting with the owner) (Day 0 (baseline)) | FMPI Q17 (using the litter box) (Day 0 (baseline)) | FMPI Q1 (walking) (Day 3) | FMPI Q3 (jumping up) (Day 3) | FMPI Q5 (jumping down) (Day 3) | FMPI Q8 (playing with/chasing toys) (Day 3) | FMPI Q13 (grooming) (Day 3) | FMPI Q14 (interacting with the owner) (Day 3) | FMPI Q17 (using the litter box) (Day 3) | FMPI Q1 (walking) (Day 7) | FMPI Q2 (running) (Day 7) | FMPI Q3 (jumping up) (Day 7) | FMPI Q4 (jumping up to kitchen counter height) (Day 7) | FMPI Q5 (jumping down) (Day 7) | FMPI Q8 (playing with/chasing toys) (Day 7) | FMPI Q12 (stretching) (Day 7) | FMPI Q13 (grooming) (Day 7) | FMPI Q14 (interacting with the owner) (Day 7) | FMPI Q15 (being touched or handled) (Day 7) | FMPI Q17 (using the litter box) (Day 7) | FMPI Q1 (walking) (Day 14) | FMPI Q2 (running) (Day 14) | FMPI Q4 (jumping up to kitchen counter height) (Day 14) | FMPI Q5 (jumping down) (Day 14) | FMPI Q8 (playing with/chasing toys) (Day 14) | FMPI Q9 (playing and interacting with other pets) (Day 14) | FMPI Q12 (stretching) (Day 14) | FMPI Q13 (grooming) (Day 14) | FMPI Q14 (interacting with the owner) (Day 14) | FMPI Q15 (being touched or handled) (Day 14) | FMPI Q17 (using the litter box) (Day 14) | FMPI Q3 (jumping up) (Screening (baseline)) | FMPI Q8 (playing with/chasing toys) (Screening (baseline)) | FMPI Q12 (stretching) (Screening (baseline)) | FMPI Q13 (grooming) (Screening (baseline)) | FMPI Q14 (interacting with the owner) (Screening (baseline)) | FMPI Q17 (using the litter box) (Screening (baseline))
57: FMPI Total score (possible range 0-68) (Day 14)
*3: FMPI Q6 (climbing upstairs) (Day 3) | FMPI Q7 (going down stairs) (Day 3)
0.71: FMPI % poss (Day 3)
0.81: FMPI % poss (Day 7)
0: FMPI Q4 (jumping up to kitchen counter height) (Day 0 (baseline)) | FMPI Q4 (jumping up to kitchen counter height) (Screening (baseline))
0.84: FMPI % poss (Day 14)
47: FMPI Total score (possible range 0-68) (Day 0 (baseline)) | FMPI Total score (possible range 0-68) (Screening (baseline))
1: FMPI Q2 (running) (Day 0 (baseline)) | FMPI Q2 (running) (Screening (baseline))
*1: FMPI Q9 (playing and interacting with other pets) (Day 3)
48: FMPI Total score (possible range 0-68) (Day 3)
55: FMPI Total score (possible range 0-68) (Day 7)
4: FMPI Q6 (climbing upstairs) (Day 0 (baseline)) | FMPI Q7 (going down stairs) (Day 0 (baseline)) | FMPI Q10 (getting up from a resting position) (Day 0 (baseline)) | FMPI Q11 (lying or sitting down) (Day 0 (baseline)) | FMPI Q16 (eating) (Day 0 (baseline)) | FMPI Q10 (getting up from a resting position) (Day 3) | FMPI Q11 (lying or sitting down) (Day 3) | FMPI Q16 (eating) (Day 3) | FMPI Q6 (climbing upstairs) (Day 7) | FMPI Q7 (going down stairs) (Day 7) | FMPI Q10 (getting up from a resting position) (Day 7) | FMPI Q11 (lying or sitting down) (Day 7) | FMPI Q16 (eating) (Day 7) | FMPI Q3 (jumping up) (Day 14) | FMPI Q6 (climbing upstairs) (Day 14) | FMPI Q7 (going down stairs) (Day 14) | FMPI Q10 (getting up from a resting position) (Day 14) | FMPI Q11 (lying or sitting down) (Day 14) | FMPI Q16 (eating) (Day 14) | FMPI Q6 (climbing upstairs) (Screening (baseline)) | FMPI Q7 (going down stairs) (Screening (baseline)) | FMPI Q10 (getting up from a resting position) (Screening (baseline)) | FMPI Q11 (lying or sitting down) (Screening (baseline)) | FMPI Q16 (eating) (Screening (baseline))
0.69: FMPI % poss (Day 0 (baseline)) | FMPI % poss (Screening (baseline))
*2: FMPI Q12 (stretching) (Day 3)
